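Cultured in 96-well plates, cells were exposed to test compound for 48 hours across five concentrations. GI50 = concentration required for 50% inhibition of growth. Definition used: TGI = concentration required for complete inhibition of growth.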
Columns and labels:
Test in all cases: NCI tumour cell line growth inhibition, 48 h
OVCAR-4 ovarian = tested on: OVCAR-4 ovarian
UACC-62 melanoma = tested on: UACC-62 melanoma
HCC-2998 colon = tested on: HCC-2998 colon
HL-60(TB) leukemia = tested on: HL-60(TB) leukemia
A549 NSCLC = tested on: A549 NSCLC
MALME-3M melanoma = tested on: MALME-3M melanoma
IGROV1 ovarian = tested on: IGROV1 ovarian
HCT-15 colon = tested on: HCT-15 colon
U251 CNS = tested on: U251 CNS
HCT-116 colon = tested on: HCT-116 colon

Structure (SMILES): CCC[CH2][Sn]1([CH2]CCC)[O]CC(CN2CCOCC2)[O]1 (centres undefined)
- GI50 (OVCAR-4 ovarian): 11.2 µM
- TGI (OVCAR-4 ovarian): 23.4 µM
- GI50 (UACC-62 melanoma): 1.79 µM
- TGI (UACC-62 melanoma): 4.55 µM
- GI50 (HCC-2998 colon): 8.82 µM
- TGI (HCC-2998 colon): 21.6 µM
- GI50 (HL-60(TB) leukemia): 1.17 µM
- TGI (HL-60(TB) leukemia): 3.62 µM
- GI50 (A549 NSCLC): 18.3 µM
- TGI (A549 NSCLC): 32.2 µM
- GI50 (MALME-3M melanoma): 1.62 µM
- TGI (MALME-3M melanoma): 5.64 µM
- GI50 (IGROV1 ovarian): 12.1 µM
- TGI (IGROV1 ovarian): 26.1 µM
- GI50 (HCT-15 colon): 6.4 µM
- TGI (HCT-15 colon): 18.6 µM
- GI50 (U251 CNS): 3.05 µM
- TGI (U251 CNS): 11 µM
- GI50 (HCT-116 colon): 8.84 µM
- TGI (HCT-116 colon): 21 µM

Structure (SMILES): CN(C)C1=NC2=S(SC(Nc3ccccc3)=N2)S1 (centres undefined)
- TGI (OVCAR-4 ovarian): > 100 µM
- TGI (UACC-62 melanoma): > 100 µM
- TGI (HCC-2998 colon): > 100 µM
- TGI (HL-60(TB) leukemia): > 100 µM
- TGI (A549 NSCLC): 47.2 µM
- TGI (MALME-3M melanoma): 46.5 µM
- TGI (IGROV1 ovarian): > 100 µM
- TGI (HCT-15 colon): > 100 µM
- TGI (U251 CNS): > 100 µM
- TGI (HCT-116 colon): > 100 µM

Structure (SMILES): COc1cc(/C=C2\C(=O)N(c3ccccc3)c3ccccc32)cc(OC)c1OC
- GI50 (OVCAR-4 ovarian): 10.4 µM
- TGI (OVCAR-4 ovarian): 23.7 µM
- GI50 (UACC-62 melanoma): 7.12 µM
- TGI (UACC-62 melanoma): 21.6 µM
- GI50 (HCC-2998 colon): 10.6 µM
- TGI (HCC-2998 colon): 23.9 µM
- GI50 (HL-60(TB) leukemia): 2.68 µM
- TGI (HL-60(TB) leukemia): 15 µM
- GI50 (A549 NSCLC): 11.3 µM
- TGI (A549 NSCLC): 40.9 µM
- GI50 (MALME-3M melanoma): 18.5 µM
- TGI (MALME-3M melanoma): 46.4 µM
- GI50 (IGROV1 ovarian): 6.61 µM
- TGI (IGROV1 ovarian): 32 µM
- GI50 (HCT-15 colon): 4.37 µM
- TGI (HCT-15 colon): 17.1 µM
- GI50 (U251 CNS): 3.87 µM
- TGI (U251 CNS): 15.3 µM
- GI50 (HCT-116 colon): 3.47 µM
- TGI (HCT-116 colon): 12.4 µM

Structure (SMILES): O=NN/C(=C1\Nc2ccc([N+](=O)[O-])cc2NC1=O)C(O)c1ccc([N+](=O)[O-])cc1 (centres undefined)
- TGI (OVCAR-4 ovarian): > 100 µM
- TGI (UACC-62 melanoma): > 100 µM
- TGI (HCC-2998 colon): > 100 µM
- TGI (HL-60(TB) leukemia): > 100 µM
- TGI (A549 NSCLC): > 100 µM
- TGI (MALME-3M melanoma): > 100 µM
- TGI (IGROV1 ovarian): > 100 µM
- TGI (HCT-15 colon): > 100 µM
- TGI (U251 CNS): > 100 µM
- TGI (HCT-116 colon): > 100 µM

Structure (SMILES): Clc1ccc(C2=NN[C@H](c3cn(-c4ccccc4)nc3-c3ccccc3)C2)cc1
- GI50 (OVCAR-4 ovarian): 4.87 µM
- TGI (OVCAR-4 ovarian): 34.3 µM
- GI50 (UACC-62 melanoma): 7.06 µM
- TGI (UACC-62 melanoma): 28.4 µM
- GI50 (HCC-2998 colon): 11.4 µM
- TGI (HCC-2998 colon): > 100 µM
- GI50 (HL-60(TB) leukemia): 19.8 µM
- TGI (HL-60(TB) leukemia): > 100 µM
- GI50 (A549 NSCLC): 3.37 µM
- TGI (A549 NSCLC): 14.4 µM
- GI50 (MALME-3M melanoma): 5.66 µM
- TGI (MALME-3M melanoma): > 100 µM
- GI50 (IGROV1 ovarian): 6.28 µM
- TGI (IGROV1 ovarian): 33.2 µM
- GI50 (HCT-15 colon): 16.5 µM
- TGI (HCT-15 colon): > 100 µM
- GI50 (U251 CNS): 3.17 µM
- TGI (U251 CNS): 11.7 µM
- GI50 (HCT-116 colon): 2.03 µM
- TGI (HCT-116 colon): 4.01 µM

Structure (SMILES): COc1ccc2c(c1)/C(=C\c1c(Cl)n(C)c3ccccc13)C(=O)N2
- GI50 (OVCAR-4 ovarian): 7.07 µM
- TGI (OVCAR-4 ovarian): > 100 µM
- GI50 (UACC-62 melanoma): 0.255 µM
- TGI (UACC-62 melanoma): 5.34 µM
- GI50 (HCC-2998 colon): 0.306 µM
- TGI (HCC-2998 colon): 1.08 µM
- GI50 (HL-60(TB) leukemia): 0.182 µM
- TGI (HL-60(TB) leukemia): 2.65 µM
- GI50 (A549 NSCLC): 0.818 µM
- TGI (A549 NSCLC): > 100 µM
- GI50 (MALME-3M melanoma): 4.59 µM
- TGI (MALME-3M melanoma): 16.7 µM
- GI50 (IGROV1 ovarian): 0.561 µM
- GI50 (HCT-15 colon): 0.456 µM
- TGI (HCT-15 colon): 8.17 µM
- GI50 (U251 CNS): 0.817 µM
- TGI (U251 CNS): 10.5 µM
- GI50 (HCT-116 colon): 1.29 µM
- TGI (HCT-116 colon): > 28.6 µM

Structure (SMILES): Cc1ccc(C(=O)C#Cc2c[nH]c(=O)[nH]c2=O)cc1
- TGI (OVCAR-4 ovarian): 47.3 µM
- TGI (UACC-62 melanoma): 21.8 µM
- TGI (HCC-2998 colon): 25.3 µM
- TGI (HL-60(TB) leukemia): 35.1 µM
- TGI (A549 NSCLC): 39.8 µM
- TGI (MALME-3M melanoma): 18.7 µM
- TGI (IGROV1 ovarian): 31.2 µM
- TGI (HCT-15 colon): 37.7 µM
- TGI (U251 CNS): 28.2 µM
- TGI (HCT-116 colon): 18.5 µM

Structure (SMILES): C=CC[C@@H]1/C=C(\C)C[C@H](C)C[C@H](OC)[C@H]2O[C@@](O)(C(=O)C(=O)N3CCCC[C@H]3C(=O)O[C@H](/C(C)=C/C3CC[C@@H](O)[C@H](OC)C3)[C@H](C)[C@@H](O)CC1=O)[C@H](C)C[C@@H]2OC (some centres undefined)
- GI50 (OVCAR-4 ovarian): 13.9 µM
- TGI (OVCAR-4 ovarian): 27.2 µM
- GI50 (UACC-62 melanoma): 13.4 µM
- TGI (UACC-62 melanoma): 27.6 µM
- GI50 (HCC-2998 colon): 18.8 µM
- TGI (HCC-2998 colon): 34.7 µM
- GI50 (HL-60(TB) leukemia): 16.4 µM
- TGI (HL-60(TB) leukemia): 38.4 µM
- GI50 (A549 NSCLC): 12.7 µM
- TGI (A549 NSCLC): 25.7 µM
- GI50 (MALME-3M melanoma): 14.6 µM
- TGI (MALME-3M melanoma): 32.1 µM
- GI50 (IGROV1 ovarian): 17.3 µM
- TGI (IGROV1 ovarian): 41 µM
- GI50 (HCT-15 colon): 17.2 µM
- TGI (HCT-15 colon): 38.1 µM
- GI50 (U251 CNS): 14.2 µM
- TGI (U251 CNS): 27.7 µM
- GI50 (HCT-116 colon): 13.8 µM
- TGI (HCT-116 colon): 26.7 µM

Structure (SMILES): CCCc1nc(NC#N)nc(C(=O)NC23CC4CC(CC(C4)C2)C3)c1C
- TGI (OVCAR-4 ovarian): > 100 µM
- TGI (UACC-62 melanoma): > 100 µM
- TGI (HCC-2998 colon): > 100 µM
- TGI (HL-60(TB) leukemia): > 100 µM
- TGI (A549 NSCLC): > 100 µM
- TGI (MALME-3M melanoma): > 100 µM
- TGI (IGROV1 ovarian): > 100 µM
- TGI (HCT-15 colon): > 100 µM
- TGI (U251 CNS): > 100 µM
- TGI (HCT-116 colon): > 100 µM

Structure (SMILES): Cc1cc2cc3cc(C)c(N)cc3[n+](C)c2cc1N
- GI50 (OVCAR-4 ovarian): 1.52 µM
- TGI (OVCAR-4 ovarian): 8.78 µM
- GI50 (UACC-62 melanoma): 1.41 µM
- TGI (UACC-62 melanoma): 3.2 µM
- GI50 (HCC-2998 colon): 1.45 µM
- TGI (HCC-2998 colon): 4.26 µM
- GI50 (HL-60(TB) leukemia): 2.31 µM
- TGI (HL-60(TB) leukemia): 7.74 µM
- GI50 (A549 NSCLC): 1 µM
- TGI (A549 NSCLC): 10.9 µM
- GI50 (MALME-3M melanoma): 2.38 µM
- TGI (MALME-3M melanoma): 6.86 µM
- GI50 (IGROV1 ovarian): 2.66 µM
- TGI (IGROV1 ovarian): 15.3 µM
- GI50 (HCT-15 colon): 2.65 µM
- TGI (HCT-15 colon): 11.7 µM
- GI50 (U251 CNS): 0.339 µM
- TGI (U251 CNS): 3.17 µM
- GI50 (HCT-116 colon): 1.15 µM
- TGI (HCT-116 colon): 4.66 µM
